“And” between values parts separate entries of the source, which are not always exact repeats. Equal entries are not always repeated. “Also recorded” adds a separate entry of the source. Where two headings read alike, the source gives them in different places.
Assays:
SERT = target: T1, SERT (Homo sapiens, UniProt P31645); test: Inhibition of [3H]citalopram binding to membranes from HEK293 cells expressing GFP-SERT
T1 construct: expressed in transfected cells
Protocol: Membranes were prepared from HEK293 cells stably expressing GFP-SERT. […] The pellets were resuspended in a buffer containing 20 mM HEPES, 2 mM MgCl2, 1 mm EDTA, pH adjusted to 7.4 with NaOH, subjected to freeze-thaw cycles in liquid nitrogen and sonicated on ice three times for 10 s with 30 s intervals. Following another centrifugation step, the whole-cell membrane pellets were resuspended in buffer and protein concentration was estimated by dye binding (Coomassie Brilliant Blue R-250; Bio-Rad, USA). […] Binding reactions were also done in the presence of 120 mM K^+ buffer (buffer composition: 20 mM Tris-HCl, pH 7.4, 1 mM EDTA, 2 mM MgCl2, 120 mM KCl; 4 mM Na^+ were present from the carry-over of HEPES·NaOH and from Na·EDTA). For binding reactions under these conditions, 7–8 µg of membranes were used to improve the dynamic range of binding. The binding reactions were terminated by harvesting the membranes on glass fiber filters precoated with polyethylenimine and rapid washing with ice-cold wash buffer (10 mM Tris·HCl, pH 7.4, 120 mM NaCl, 2 mM MgCl2). The radioactivity trapped on the filters was quantified by liquid scintillation counting. Nonspecific binding was measured in the presence of 10 µM paroxetine.

[1] = target: T2, wild-type GFP-tagged human SERT (Homo sapiens, UniProt P31645); test: Whole-cell patch clamp recordings of currents through SERT; format: cell-based; details: for transient peak current on application of the compound: 100 µM, absence of substrate
T2 construct: expressed in transfected cells
Protocol: HEK293 cells stably expressing wild-type GFP-tagged human SERT were seeded at low density on poly-D-lysine-coated dishes. Twenty hr after seeding, these cells were subjected to patch clamp recordings in the whole-cell configuration. In most instances cells were continuously maintained in an external solution containing 140 mM NaCl, 3 mM KCl, 2.5 mM CaCl2, 2 mM MgCl2, 20 mM glucose, and 10 mM HEPES (pH adjusted to 7.4 with NaOH) and the drugs were diluted therein. The internal solution in the patch pipette contained 133 mM potassium gluconate (CH2OH(CHOH)4COOK), 5.9 mM NaCl, 1 mM CaCl2, 0.7 mM MgCl2, 10 mM HEPES, 10 mM EGTA (pH adjusted to 7.2 with KOH). Drugs were applied using a 4-tube ALA perfusion manifold (NPI Electronic GmbH, Germany) and a DAD-12 superfusion system (Adams & List, Westbury, NY, USA) allowing for complete solution exchange around the cells within 100 ms. Current amplitudes and associated kinetics were quantified using Clampfit 10.2 software. Passive holding currents were subtracted, and the traces were filtered using a 100 Hz digital Gaussian low-pass filter.

SERT-PG^601,602AA [2] = target: T3, SERT-PG^601,602AA (Homo sapiens, UniProt P31645, G602A/P601A); test: Functional rescue (pharmacochaperoning) of folding-deficient SERT mutant, [3H]5-HT uptake after 24 hr preincubation; format: cell-based; details: for [3H]5-HT uptake normalized to untreated wild-type SERT: 30 µM for 24 hr, 0.1 µM [3H]5-HT, untreated mutant 14.8 ± 5.3%; for Emax: read-out: EMAX of pharmacochaperoning (rescued uptake, % of transport velocity in cells expressing wild-type SERT)
T3 construct: expressed in transfected cells; host or cells: HEK293 (ATCC CRL-1573), transient PEI transfection

SERT-PG^601,602AA [3] = target: T3, SERT-PG^601,602AA; test: Immunoblotting of glycosylation state (mature vs core-glycosylated band) of the SERT mutant; format: cell-based
[4] = tested on: YFP-tagged human SERT-PG^601,602AA in serotonergic neurons; test: Delivery of mutant transporter to the fan-shaped body in transgenic flies fed with drug; format: in vivo, Drosophila melanogaster; details: 100 µM in food for 48 hr, 3-day old male flies
Source text: (§1) The transgenic UAS reporter lines for YFP-tagged human wild-type SERT and SERT-PG^601,602AA were generated using the pUAST-attB vector (gift from Drs Bischof and Basler, University of Zürich) and injected into embryos of ZH-86Fb flies (Bloomington stock no. 24749). Positive transformants were isolated and selected. TRH-T2A-Gal4 (Bloomington stock no. 84694) was used to drive the expression of transporters in serotonergic neurons. […] The brains of these flies were then imaged using confocal microscopy. All flies were kept at 25°C, and all crosses were performed at 25°C.
(§2) Adult fly brains were dissected in PBS and fixed in 2% paraformaldehyde in PBS for 1 hr at room temperature. Brains were then washed three times in 0.1% Triton X-100 in PBS for 20 min on a shaker. Blocking was performed in 10% goat serum for 1 hr at room temperature on a shaker. Brains were then incubated in primary antibody overnight in PBS containing 3% BSA and 0.3% Triton X-100 at 4°C on a shaker. The rabbit polyclonal IgG directed against GFP (1:1000 dilution; A-11122, Invitrogen) and anti-serotonin antibody (S5545, Sigma-Aldrich) were used as primary antibodies. After three washes for 20 min with PBS containing 0.1% Triton X-100, the brains were incubated overnight at 4°C with a secondary antibody in PBS containing 0.3% Triton X-100 on a shaker. […]

[5] = tested on: YFP-tagged wild-type human SERT in serotonergic neurons; test: Localization of wild-type transporter in the fan-shaped body in transgenic flies fed with drug; format: in vivo, Drosophila melanogaster; details: 100 µM in food for 48 hr, flies harboring wild-type human SERT
Source text: as §1, §2

[6] = target: T2, wild-type GFP-tagged human SERT; test: Whole-cell patch clamp recordings of currents through SERT; format: cell-based; details: 100 µM pre-applied for 1 s or 3 s in the absence of 5-HT; internal 150 mM NaCl
[7] = target: T4, wild-type human YFP-tagged SERT (Homo sapiens, UniProt P31645); test: Inhibition of SERT-mediated [3H]5-HT uptake in HEK293 cells stably expressing YFP-SERT; format: cell-based; set-up: expressed in transfected cells
WT-SERT = WT-SERT (Homo sapiens, UniProt P31645); test: [3H]5-HT uptake by cells transiently expressing WT-SERT after 24 hr preincubation; details: 30 µM for 24 hr; 0.1 µM [3H]5-HT
[8] = target: T4, wild-type human YFP-tagged SERT; test: Saturation kinetics (KM, Vmax) of 5-HT uptake by SERT after preincubation with inhibitor
NCCc1c[nH]c2ccc(O)cc12 = test: cells, lysate or membranes; details: other: absence of any inhibitor; pH 7.4
[9] = inhibition of 10 µM 5-HT-induced steady current
[10] = preincubation with 10 µM inhibitor
[11] = preincubation with 30 µM inhibitor
[12] = preincubation with 3 µM inhibitor

`O=CNC(Cc1ccc2c(c1)OCO2)Cc1ccc2c(c1)OCO2` [ECSI#6, N-formyl-1,3-bis (3,4-methylenedioxyphenyl)-prop-2-yl-amine] was tested, and the “fold more potent in displacing [3H]citalopram in 120 mM KCl than in 120 mM NaCl” value (SERT) was “about 10 fold”, the “binding relative to serotonin (Dixon plots)” value (SERT; 1 and 10 µM serotonin) was “mutually exclusive” and the IC50 (SERT; IC50(1 µM 5-HT), inhibition of [3H]citalopram binding, 120 mM Na+, 1 µM 5-HT) was 28.6 µM. The IC50 (SERT; IC50(10 µM 5-HT), inhibition of [3H]citalopram binding, 120 mM Na+, 10 µM 5-HT) was 60 µM, the IC50 (SERT; IC50(no 5-HT), inhibition of [3H]citalopram binding, 120 mM Na+, 3 nM [3H]citalopram, no 5-HT) was 16 µM and the IC50 (SERT; buffer with 120 mM K+, read-out: IC50(120 K+), inhibition of [3H]citalopram binding) was 4.18 µM and 5 µM. The IC50 (SERT; buffer with 120 mM Na+ (Na+/K+ comparison), read-out: IC50(120 Na+), inhibition of [3H]citalopram binding) was 46.2 µM, the “affinity estimate, fold lower than the KD of 1 µM required for ToNaS” value (SERT; presence of 10 µM 5-HT) was over 30 fold and the IC50 ([1]; 30 µM 5-HT, ECSI#6 co-applied, read-out: IC50 of block of the 5-HT-induced steady current) was 4.5 µM and ~5 µM. For the same compound, the “effect on 5-HT-induced steady current” value ([1]; 100 µM in continuous presence of 10 µM 5-HT) was “complete suppression of the current”, the “effect of intracellular application on 5-HT-induced current amplitude” value ([1]; 100 µM in the electrode solution, 30 µM 5-HT) was “only had a modest effect, if any; also recorded: did not cause an appreciable current block” and the “ratio of the second and first pulse (peak 2/peak 1)” value ([1]; 100 µM pre-applied for 1 s or 3 s) was “always close to one”. The “transient peak current on application of the compound” value (shortened to “transient peak current on application”) [1] was “failed to do so”, the “koff (y-intercept of kapp vs concentration)” value [1, 9] was 1.7±0.5 s^–1 and the “kon (slope of kapp vs concentration)” value [1, 9] was 2.1*10^4±3.5*10^3 M^–1 s^–1. For the same compound, the “[3H]5-HT uptake normalized to untreated wild-type SERT” value (shortened to “[3H]5-HT uptake normalized”) (SERT-PG^601,602AA [2]) was 56.5 ± 5.1%, the EC50 (SERT-PG^601,602AA [2]; 24 hr preincubation, read-out: EC50 for pharmacochaperoning (rescued uptake)) was 2900 nM and the Emax (SERT-PG^601,602AA [2]) was 52%. For the same compound, the EC50 (SERT-PG^601,602AA [3]) was 440 nM, the “EMAX of ratio of mature (M) to core-glycosylated band (C)” value (SERT-PG^601,602AA [3]; 24 hr treatment, densitometry, corrected for Gβ) was 1.42 AU and the “delivery of the mutant transporter to the presynaptic territory (fan-shaped body)” value [4] was “partially restored the delivery of the mutant transporter to the presynaptic territory”. The “effect on level of fluorescence in the fan-shaped body” value [5] was “did not have any appreciable effect”, the “effect of pre-application on 5-HT-induced peak current amplitude” value [6] was “did not result in the reduction of the peak current amplitude” and the IC50 ([7]; IC50(0.1), inhibition of [3H]5-HT uptake, 0.1 µM [3H]5-HT, absence of additional unlabeled 5-HT) was 441 µM. For the same compound, the IC50 ([7]; IC50(1), inhibition of [3H]5-HT uptake, 0.1 µM [3H]5-HT, presence of 1 µM unlabeled 5-HT) was 74.1 µM, the IC50 ([7]; IC50(3), inhibition of [3H]5-HT uptake, 0.1 µM [3H]5-HT, presence of 3 µM unlabeled 5-HT) was 25.6 µM and the IC50 ([7]; IC50(10), inhibition of [3H]5-HT uptake, 0.1 µM [3H]5-HT, presence of 10 µM unlabeled 5-HT) was 19.3 µM. The IC50 ([7]; low 5-HT concentration (0.1 µM), read-out: IC50 value in the uptake assay) was about 500 µM, the “[3H]5-HT uptake normalized” value (WT-SERT) was 103.3 ± 11.3% and the “mode of inhibition of substrate uptake by SERT” value (from here on “mode of inhibition … by SERT”) [8] was “uncompetitive inhibition”. The “VMAX of 5-HT transport by SERT” value [8, 10] was 89.5 pmol min^–1 10^–6 cells, the “VMAX of 5-HT transport by SERT” value [8, 11] was 49.9 pmol min^–1 10^–6 cells and the “VMAX of 5-HT transport by SERT” value ([8]; preincubation with 100 µM inhibitor) was 20.8 pmol min^–1 10^–6 cells.

For `COC(=O)[C@H]1[C@@H](OC(=O)c2ccccc2)C[C@@H]2CC[C@H]1N2C` [cocaine], the “potency in inhibiting [3H]citalopram binding in 120 mM KCl compared with 120 mM NaCl” value (SERT) was “substantially less potent (by an order of magnitude)”, the “kapp of current inhibition, level at which it leveled off” value ([1]; 10 µM 5-HT-induced steady current, –60 mV) was “about 2 s^–1” and the “transient peak current on application” value [1] was “induced transient peak currents”. For the same compound, the “effect on SERT species carrying mature glycans” value (SERT-PG^601,602AA [3]; 30 µM (saturating concentration), 24 hr) was “did not cause any appreciable increase”, the “[3H]5-HT uptake normalized” value (WT-SERT) was 111.4 ± 4.2% and the “mode of inhibition … by SERT” value [8] was “competitive”. For the same compound, the “VMAX of 5-HT transport by SERT” value [8, 12] was 118.3 pmol min^–1 10^–6 cells, the “VMAX of 5-HT transport by SERT” value [8, 10] was 121.1 pmol min^–1 10^–6 cells and the “VMAX of 5-HT transport by SERT” value [8, 11] was 120.1 pmol min^–1 10^–6 cells.

For `CCC1CC2CC3c4[nH]c5ccc(O)cc5c4CCN(C2)C13` (stereo not drawn) [noribogaine, reference compound], the “potency in inhibiting [3H]citalopram binding in 120 mM KCl compared with 120 mM NaCl” value (SERT) was “distinct binding preference was not obvious”, the “transient peak current on application” value [1] was “induced transient peak currents” and the “[3H]5-HT uptake normalized” value (SERT-PG^601,602AA [2]) was 71.9 ± 6.4%. The Emax (SERT-PG^601,602AA [2]) was 69.5%, the “delivery of the mutant transporter to the presynaptic territory (fan-shaped body)” value [4] was “partially restored the delivery of the mutant transporter to the presynaptic territory” and the “effect on level of fluorescence in the fan-shaped body” value [5] was “did not have any appreciable effect”. For the same compound, the “[3H]5-HT uptake normalized” value (WT-SERT) was 93.5 ± 28.8%, the “mode of inhibition … by SERT” value [8] was “non-competitive” and the “VMAX of 5-HT transport by SERT” value ([8]; preincubation with 1 µM inhibitor) was 82.4 pmol min^–1 10^–6 cells. For the same compound, the “VMAX of 5-HT transport by SERT” value [8, 12] was 39.9 pmol min^–1 10^–6 cells and the “VMAX of 5-HT transport by SERT” value [8, 10] was 19.5 pmol min^–1 10^–6 cells.

“wild-type human YFP-tagged SERT (Homo sapiens)” gave a Km (NCCc1c[nH]c2ccc(O)cc12) of 2.3 µM.

Reference: article PMC9883013 (eLife, 2023)
